Test results from article PMC9181982, “Biphenyl Ether Analogs Containing Pomalidomide as Small-Molecule Inhibitors of the Programmed Cell Death-1/Programmed Cell Death-Ligand 1 Interaction” (Molecules, 2022).
“Also recorded” adds a separate entry of the source.

Tests used:
PD-1/PD-L1 complex = target: T1, PD-1/PD-L1 complex (Homo sapiens, UniProt Q9NZQ7); assay: HTRF (homogeneous time-resolved fluorescence) PD-1/PD-L1 binding assay (Cis-Bio); details: for inhibition at 0.5 µM: 0.5 µM ligand, read-out: HTRF: Percentage of the Dissociated PD-1/PD-L1 Complex, 0.5 µM Ligand Conc.; for inhibition at 0.5 µM / inhibition at 5 µM: 5 nM hPD-L1, 50 nM hPD-1; for inhibition at 5 µM: 5 µM ligand, read-out: HTRF: Percentage of the Dissociated PD-1/PD-L1 Complex, 5 µM Ligand Conc.; for IC50: six ligand concentrations, two dilution series
T1 construct: purchased Cis-Bio
T1 sequence (Q9NZQ7 19-238 limits assumed, one chain of several): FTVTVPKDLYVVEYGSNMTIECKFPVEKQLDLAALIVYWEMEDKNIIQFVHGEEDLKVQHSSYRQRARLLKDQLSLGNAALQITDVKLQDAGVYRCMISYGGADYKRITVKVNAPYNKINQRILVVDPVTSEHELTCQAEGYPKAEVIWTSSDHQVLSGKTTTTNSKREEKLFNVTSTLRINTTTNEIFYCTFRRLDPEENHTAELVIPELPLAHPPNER
Experimental: To validate the activity toward PD-L1 of our compounds, we carried out an HTRF (homogeneous time-resolved fluorescence) experiment at two concentrations of the ligand (5 µM and 0.5 µM) (Table 1).
HTRF was carried out using a certified Cis-Bio assay according to the manufacturer’s guidelines. The experiments were carried out at 5 nM of h-L1 and 50 nM of hPD-1 in the final formulation at the 20 µL final volume in the well. To determine the half maximal inhibitory concentrations (IC50) of the tested compounds, the measurements were carried out on two individual dilution series unless stated otherwise. After mixing all the components according to the Cis-Bio protocol, the plate was left for 2 h incubation at room temperature followed by the TR-FRET measurement on a Tecan Spark 20M. […] The collected data was background-subtracted from the negative control, normalized on the positive control, averaged, and fitted with the normalized Hill’s equation to determine the IC50 value using Mathematica 12 (Princeton, NJ, USA).

[1] = tested on: PD-1/PD-L1 blockade, Jurkat effector cells / CHO/TCRAct/PD-L1 cells; assay: Immune checkpoint blockade (ICB) assay (Promega): Jurkat ECs co-cultured with CHO/TCRAct/PD-L1 cells, NFAT luciferase readout; assay type: cell-based, human; details: for Activation of Jurkat ECs compared with BMS-1166: 5 µM, p < 0.001 vs BMS-1166; for Activation of Jurkat ECs in the ICB assay: 6 h co-culture, fold induction vs control; for Promega Assay (active / not active): cell-based PD-1/PD-L1 blockade bioassay
Experimental: In order to explore the bioactivity of the synthesized compounds, a well-recognized immune checkpoint blockade (ICB) assay was performed. In the assay, artificial T cells, the Jurkat effector cells (Jurkat ECs), i.e., the Jurkat T cells overexpressing PD-1 and luciferase-coding gene under the control of the TCR-inducible NFAT response element, are contacted with artificial antigen-presenting CHO/TCRAct/PD-L1 cells, as illustrated in [31]. The latter is the CHO cells equipped with the TCR activator molecule, which delivers activation of Jurkat ECs, and also the PD-L1 protein, which provides a negative signal towards the activation of Jurkat ECs. Upon the blockade of the PD-1/PD-L1 interaction, activation of Jurkat ECs is increased, as we have shown before for several classes of therapeutic antibodies and small molecules.
The human PD-L1-expressing CHO-K1 cells overexpressing TCR activator (CHO/TCRAct/PD-L1) cells and Jurkat ECs T cells overexpressing PD-1 and carrying a luciferase reporter gene under the control of the Nuclear Factor of Activated T cells Response Element (NFAT-RE) were obtained from Promega and cultured in an RPMI-1640 medium (Biowest, Nuaillé, France) supplemented with 10% fetal bovine serum (FBS, Biowest, Nuaillé, France) and […] L-glutamine (Biowest, Nuaillé, France). G418 (250 µg/mL, InvivoGen, San Diego, CA, USA) and Hygromycin B Gold (50 µg/mL, InvivoGen, San Diego, CA, USA) were also added to the culture medium as selection antibiotics. CAKI 2, LNCap, PC-3, and MDA-MB-231 cells were purchased from the European Collection of Authenticated Cell Cultures (ECACC) and cultured according to the provided protocol.
For the analysis of biological activity of the analyzed compounds, an immune checkpoint blockade (ICB) assay was performed. For this, the culture of Jurkat effector cells (Jurkat-ECs) and […] was carried out. The assay was performed according to the protocol described in our previous works. All the experiments were performed three times as independent experiments.
Figure 2 Bioactivity of the indicated compounds. (A,B) The activity was monitored with a cell-based immune checkpoint blockade (ICB) assay. Jurkat ECs were contacted with pre-seeded CHO/TCRAct/PD-L1 cells in the presence of the indicated concentrations of the compounds (A) or durvalumab (B) as a positive control. The cells were co-cultured for 6 h and the luminescence signal was measured following the addition of the Bio-Glo substrate. The graphs show fold induction calculated versus either DMSO-treated (for small molecules) or untreated (for durvalumab) control (ctrl) cells. The results are mean ± SD from three independent experiments. […] (C) Analysis of the expression of PD-L1 in four human cancer cell lines compared to PD-L1-overexpressing CHO/TCRAct/PD-L1 cells. (D) Analysis of the expression of PD-L1 in MDA-MB-231 cells treated with either 4 or 5 compounds for 6 or 24 h.

PD-L1 protein = target: T2, PD-L1 protein (Homo sapiens, UniProt Q9NZQ7); assay: 1H NMR binding analysis, PD-L1 protein titrated with ligand; details: for Protein precipitation during NMR titration: 1H NMR titration, compound 6 at protein–ligand ratio 1:10; for Binding to PD-L1 by 1H NMR titration: PBS pH 7.4, 300 K, protein–ligand ratios up to 1:10
T2 construct: PD-L1 gene (amino acids 18–239); made in house; host or cells: E. coli BL21
T2 sequence (Q9NZQ7 18-239): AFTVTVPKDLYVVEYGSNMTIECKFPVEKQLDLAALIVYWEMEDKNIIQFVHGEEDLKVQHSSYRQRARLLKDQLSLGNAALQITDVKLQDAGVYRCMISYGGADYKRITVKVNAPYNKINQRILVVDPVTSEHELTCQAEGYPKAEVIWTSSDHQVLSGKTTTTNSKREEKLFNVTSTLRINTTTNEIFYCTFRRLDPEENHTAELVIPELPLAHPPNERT
Experimental: Apart from the HTRF assay, we performed the NMR [33, 34] binding analysis by recording the ^1H spectrum of the PD-L1 protein titrated with compound 4 (Figure 1).
The E. coli strain BL21 was transformed with a pET-21b plasmid carrying the PD-L1 gene (amino acids 18–239). The bacteria were cultured in LB at 37 °C until OD600nm of 0, 6 when the recombinant protein production was induced with 1 mM IPTG. The protein production continued overnight. The inclusion bodies were collected by centrifugation, washed twice with 50 mM Tris HCl, pH 8.0, containing 200 mM NaCl, 10 mM EDTA, 10 mM 2-mercaptoethanol, and 0.5% Triton X-100, followed by a single wash with the same buffer but with no Triton X-100. The washed inclusion bodies were resuspended overnight in 50 mM Tris HCl, pH 8.0, 6 M GuHCl, 200 mM NaCl, and 10 mM 2-mercaptoethanol and clarified with centrifugation. Refolding of PD-L1 was performed by dropwise dilution into 0.1 M Tris HCl, pH 8.0, containing 1 M L-arginine hydrochloride, 0.25 mM oxidized glutathione, and 0.25 mM reduced glutathione. The refolded protein was dialyzed three times against 10 mM Tris HCl, pH 8.0, containing 20 mM NaCl and purified by size exclusion chromatography using Superdex 75 and a dialysis buffer. The quality of the refolded protein was evaluated by SDS-PAGE and NMR.
NMR spectra were recorded in PBS, pH 7.4, containing 10% (v/v) of D2O added to the samples to provide the lock signal. Water suppression was carried out using the WATERGATE sequence. All the spectra were recorded at 300 K using a Bruker Avance 600 MHz spectrometer with the Cryo-Platform. The NMR spectrum was recorded at three different ligand/protein ratios from 0 to 10. The samples were prepared by adding small amounts of a 50 mM ligand stock solution in DMSO to the protein solution (0.20 mL) of the PD-L1 fragment at a concentration of 0.14 mM. The acquisition parameters for each spectrum were as follows: size of FID32768, number of scans: 32. The spectra were visualized using TopSpin 4.0.2. (Bruker, Billerica, MA, USA)

SMILES | inhibition at 0.5 µM (PD-1/PD-L1 complex) | inhibition at 5 µM (PD-1/PD-L1 complex) | IC50 (PD-1/PD-L1 complex) | Activation of Jurkat ECs compared with BMS-1166 [1] | Activation of Jurkat ECs in the ICB assay [1] | Promega Assay (active / not active) [1] | Protein precipitation during NMR titration (PD-L1 protein) | Binding to PD-L1 by 1H NMR titration (PD-L1 protein)
COc1nc(OCc2cccc(-c3ccccc3)c2C)ccc1CNCC1CCN(CC(=O)Nc2cccc3c2C(=O)N(C2CCC(=O)NC2=O)C3=O)CC1 (stereo not shown) [compound 4, N-(2-(2,6-dioxopiperidin-3-yl)-1,3-dioxoisoindolin-4-yl)-2-(4-((((2-methoxy-6-((2-methyl-[1,1′-biphenyl]-3-yl)methoxy)pyridin-3-yl)methyl)amino)methyl)piperidin-1-yl)acetamide] | 18.2% | 88.8% | 1.32 ± 0.04 µM | significantly higher levels of the activation of Jurkat ECs | able to increase the activation of Jurkat ECs; also recorded: significantly restore the repressed immunity | Active | not observed | bind to the PD-L1 protein
COc1nc(OCc2cccc(-c3ccccc3)c2C)ccc1CNCCCNc1cccc2c1C(=O)N(C1CCC(=O)NC1=O)C2=O (stereo not shown) [compound 5, 2-(2,6-dioxopiperidin-3-yl)-4-((3-(((2-methoxy-6-((2-methyl-[1,1′-biphenyl]-3-yl)methoxy)pyridin-3-yl)methyl)amino)propyl)amino)isoindoline-1,3-dione] | 66.3% | 100% | 0.64 ± 0.02 µM | significantly higher levels of the activation of Jurkat ECs | able to increase the activation of Jurkat ECs; also recorded: significantly restore the repressed immunity | Active | not observed | bind to the PD-L1 protein
